# Data taken from article PMC6792352, “Limited Chemical Structural Diversity Found to Modulate Thyroid Hormone Receptor in the Tox21 Chemical Library” (Environmental Health Perspectives, 2019).
# Where a name gives a salt, the structure may show the parent alone. Read-outs that look alike come from different tables or passages of the source.
# Key:
# [1] = system: thyroid hormone receptor (endogenous TRα and TRβ); test: GH3-TRE-Ag primary qHTS, luciferase reporter, agonist mode (TOX21_TR_LUC_GH3_Agonist, aeid 803); format: cell-based, rat
# in vitro = conditions: rat, gh3-tre-luc cells, AC50 (uM) modified / 1000
# GH3-TRE-Luc cell line = conditions: read-out: AC50 (uM) modified / 1000, viability, 1 nM T3 present, 24 h
structure (smiles),measurement,setting,value
NC(CO)(CO)CO [tromethamine],activity in GH3-TRE agonist assay,[1],completely inactive
same,CC50 at 24 h,in vitro,> 90 µM
"O=C([O-])[C@H](O)[C@@H](O)[C@H](O)[C@H](O)CO.O=C([O-])[C@H](O)[C@@H](O)[C@H](O)[C@H](O)CO.[Ba+2] [D-Gluconic acid, barium salt]",resp_max (maximum response value),"[1]; Table S2, aeid 803, per sample",3.109 percent_activity
same,hitc,"[1]; Table S2, aeid 803, tcpl hit call",0
same,hitc_modified,"[1]; Table S2, aeid 803, final hitc after manual review",0
same,AC50,"[1]; Table S2, aeid 803, inactive set to 1000, read-out: AC50 (uM) modified",> 50 µM
"Oc1ccc(C(c2ccc(O)cc2)C(Cl)(Cl)Cl)cc1 [2,2-Bis(4-hydroxyphenyl)-1,1,1-trichloroethane]",CC50,GH3-TRE-Luc cell line; Tox21_110001=Tox21_300656,55.1 µM
same,CC50 at 24 h,in vitro,74.8 µM
CCCCCCCCCCCCOC(=O)c1cc(O)c(O)c(O)c1 [Lauryl gallate],CC50,GH3-TRE-Luc cell line; Tox21_110001=Tox21_303487,3.66 µM
same,CC50 at 24 h,in vitro,2.89 µM
"O=C(Nc1ccccc1SSc1ccccc1NC(=O)c1ccccc1)c1ccccc1 [2,2'-Dibenzoylaminodiphenyl disulfide]",CC50,GH3-TRE-Luc cell line; Tox21_110001=Tox21_303466,72.6 µM
same,CC50 at 24 h,in vitro,89.8 µM
CCCCCCCCOC(=O)c1ccc(O)cc1 [Octylparaben],CC50,GH3-TRE-Luc cell line; Tox21_110001=Tox21_303430,46 µM
same,CC50 at 24 h,in vitro,60.4 µM
CCCCCCCCCc1ccc(O)cc1 [4-Nonylphenol],CC50,GH3-TRE-Luc cell line; Tox21_110001=Tox21_303647,42.8 µM
same,CC50 at 24 h,in vitro,41.5 µM
CCCCC/C=C\C/C=C\CCCCCCCC(=O)OC [Methyl linoleate],CC50,GH3-TRE-Luc cell line; Tox21_110001=Tox21_302917,74 µM
same,CC50 at 24 h,in vitro,> 90 µM
CCCCCCCCCCCCc1ccccc1S(=O)(=O)O [Sodium dodecylbenzenesulfonate],CC50,GH3-TRE-Luc cell line; Tox21_110001=Tox21_300506,77.4 µM
same,CC50 at 24 h,in vitro,49.5 µM
CC1(C)[C@@H](O)CC[C@]2(C)[C@H]3C(=O)C=C4[C@@H]5C[C@@](C)(C(=O)O)CC[C@]5(C)CC[C@@]4(C)[C@]3(C)CC[C@@H]12 [Glycyrrhetinic acid],CC50,GH3-TRE-Luc cell line; Tox21_110001=Tox21_110804,24.8 µM
same,CC50,GH3-TRE-Luc cell line; Tox21_110001=Tox21_112726,19.8 µM
same,CC50 at 24 h,in vitro,28 µM
CC(C)Oc1cc(-n2nc(C(C)(C)C)oc2=O)c(Cl)cc1Cl [Oxadiazon],CC50,GH3-TRE-Luc cell line; Tox21_110001=Tox21_300668,74.7 µM
same,CC50 at 24 h,in vitro,50.6 µM
Clc1ccccc1C(c1ccccc1)(c1ccccc1)n1ccnc1 [Clotrimazole],CC50,GH3-TRE-Luc cell line; Tox21_110001=Tox21_110111,8.57 µM
same,CC50 at 24 h,in vitro,5.21 µM
CCOC(=O)C1=C[C@]2(CC)CCCN3CCc4c(n1c1ccccc41)[C@@H]32 [Vinpocetine],CC50,GH3-TRE-Luc cell line; Tox21_110001=Tox21_110839,12 µM
same,CC50 at 24 h,in vitro,22.7 µM
CCC(CC)Nc1c([N+](=O)[O-])cc(C)c(C)c1[N+](=O)[O-] [Pendimethalin],CC50,GH3-TRE-Luc cell line; Tox21_110001=Tox21_300867,> 90 µM
same,CC50 at 24 h,in vitro,76.7 µM
CC(C)[C@@]1(NC(=O)[C@@H]2C[C@@H]3c4cccc5[nH]cc(c45)C[C@H]3N(C)C2)O[C@@]2(O)[C@@H]3CCCN3C(=O)[C@H](Cc3ccccc3)N2C1=O [Dihydroergocristine],CC50,GH3-TRE-Luc cell line; Tox21_110001=Tox21_113115,21.9 µM
same,CC50 at 24 h,in vitro,21 µM
CCC(C)(c1ccc(O)cc1)c1ccc(O)cc1 [Bisphenol B],CC50,GH3-TRE-Luc cell line; Tox21_110001=Tox21_300198,88.4 µM
same,CC50 at 24 h,in vitro,78.3 µM
CCNc1nc(NC(C)(C)C)nc(SC)n1 [Terbutryn],CC50,GH3-TRE-Luc cell line; Tox21_110001=Tox21_303141,74.8 µM
same,CC50 at 24 h,in vitro,> 90 µM
Nc1ccc(O)cc1 [4-Aminophenol],CC50,GH3-TRE-Luc cell line; Tox21_110001=Tox21_113242,9.32 µM
same,CC50,GH3-TRE-Luc cell line; Tox21_110001=Tox21_201030,17.1 µM
same,CC50 at 24 h,in vitro,16.6 µM
O=C1OC2(c3ccccc31)c1cc(I)c(O)c(I)c1Oc1c2cc(I)c(O)c1I [Erythrosin B],CC50,GH3-TRE-Luc cell line; Tox21_110001=Tox21_301634,19.8 µM
same,CC50 at 24 h,in vitro,16.4 µM
O=C(Nc1ccc(Cl)cc1)Nc1ccc(Cl)c(Cl)c1 [Triclocarban],CC50,GH3-TRE-Luc cell line; Tox21_110001=Tox21_112078,3.75 µM
same,CC50,GH3-TRE-Luc cell line; Tox21_110001=Tox21_300481,3.32 µM
same,CC50 at 24 h,in vitro,6.61 µM
"Nc1ccc([N+](=O)[O-])cc1N [4-Nitro-1,2-phenylenediamine]",CC50,GH3-TRE-Luc cell line; Tox21_110001=Tox21_302811,26.4 µM
same,CC50 at 24 h,in vitro,21.8 µM
Cc1ccc(/C=C2/C(=O)C3(C)CCC2C3(C)C)cc1 (stereo not shown) [Enzacamene],CC50,GH3-TRE-Luc cell line; Tox21_110001=Tox21_112423,46.5 µM
same,CC50 at 24 h,in vitro,> 90 µM
CCN(CC)C(=O)c1cc(S(=O)(=O)Cc2ccccc2)c(N2CCC(c3ccccc3)CC2)cc1N(CC)CCN(C)C [HMR1171 trifluoroacetate (1:1)],CC50,GH3-TRE-Luc cell line; Tox21_110001=Tox21_113204,3.38 µM
same,CC50 at 24 h,in vitro,4.78 µM
CC(C)C[C@H](NC(=O)[C@H](Cc1ccccc1)NC(=O)c1cnccn1)B(O)O [Bortezomib],CC50,GH3-TRE-Luc cell line; Tox21_110001=Tox21_112672,0.00954 µM
same,CC50 at 24 h,in vitro,0.0167 µM
CC[C@H](C)C(=O)O[C@H]1C[C@@H](C)C=C2C=C[C@H](C)[C@H](CC[C@@H]3C[C@@H](O)CC(=O)O3)[C@H]21 [Lovastatin],CC50,GH3-TRE-Luc cell line; Tox21_110001=Tox21_110888,43 µM
same,CC50,GH3-TRE-Luc cell line; Tox21_110001=Tox21_300268,67 µM
same,CC50 at 24 h,in vitro,73.4 µM
C=C1CC[C@H](O)C/C1=C/C=C1\CCC[C@]2(C)[C@@H]([C@H](C)/C=C/[C@H](C)C(C)C)CC[C@@H]12 [Ergocalciferol],CC50,GH3-TRE-Luc cell line; Tox21_110001=Tox21_302752,77.9 µM
same,CC50 at 24 h,in vitro,42.5 µM
CC(CN1c2ccccc2Sc2ccccc21)N(C)C (stereo not shown) [Promethazine hydrochloride],CC50,GH3-TRE-Luc cell line; Tox21_110001=Tox21_302878,23 µM
same,CC50 at 24 h,in vitro,12.2 µM
CCCCCCCCCCCCc1ccccc1O [Dodecylphenol],CC50,GH3-TRE-Luc cell line; Tox21_110001=Tox21_303360,15.3 µM
same,CC50 at 24 h,in vitro,11.8 µM
CC1=C(/C=C/C(C)=C/C=C/C(C)=C/C(=O)O)C(C)(C)CCC1 [all trans-Retinoic acid],CC50,GH3-TRE-Luc cell line; Tox21_110001=Tox21_300305,77.6 µM
same,CC50 at 24 h,in vitro,71.8 µM
CCCCC/C=C\C/C=C\CCCCCCCC(=O)O [Linoleic acid],CC50,GH3-TRE-Luc cell line; Tox21_110001=Tox21_303080,58.3 µM
same,CC50 at 24 h,in vitro,> 90 µM
Cc1ccc(/N=C/N(C)/C=N/c2ccc(C)cc2C)c(C)c1 [Amitraz],CC50,GH3-TRE-Luc cell line; Tox21_110001=Tox21_300930,62.8 µM
same,CC50 at 24 h,in vitro,59 µM
"CCC(C)(C)c1ccc(O)c(C(C)(C)CC)c1 [2,4-Di-tert-pentylphenol]",CC50,GH3-TRE-Luc cell line; Tox21_110001=Tox21_300090,12.2 µM
same,CC50 at 24 h,in vitro,10.5 µM
"CC(C)(C)CC(C)(C)c1ccc(O)cc1 [4-(1,1,3,3-Tetramethylbutyl)phenol]",CC50,GH3-TRE-Luc cell line; Tox21_110001=Tox21_112084,22.4 µM
same,CC50 at 24 h,in vitro,35.1 µM
CNCCCC12CCC(c3ccccc31)c1ccccc12 [Maprotiline],CC50,GH3-TRE-Luc cell line; Tox21_110001=Tox21_110200,11.7 µM
same,CC50 at 24 h,in vitro,6.11 µM
CC(CCc1ccccc1)NCC(O)c1ccc(O)c(C(N)=O)c1 (stereo not shown) [Labetalol hydrochloride],CC50,GH3-TRE-Luc cell line; Tox21_110001=Tox21_302725,24.7 µM
same,CC50 at 24 h,in vitro,14.1 µM
O=C(O)C1=NN(c2ccc(S(=O)(=O)O)cc2)C(=O)C1N=Nc1ccc(S(=O)(=O)O)cc1 (stereo not shown) [FD&C Yellow 5],CC50,GH3-TRE-Luc cell line; Tox21_110001=Tox21_201539,43.1 µM
same,CC50,GH3-TRE-Luc cell line; Tox21_110001=Tox21_300554,61.1 µM
same,CC50 at 24 h,in vitro,> 50 µM
